From patent publication US5126356A, “Piperidine compounds” (Adir et Compagnie, priority 1989, dated 1992) come the findings set out here.

The target in assay [1] is Alpha adrenergic α1. Briefly: Binding to neurotransmitter receptors: alpha1 adrenergic ([3H] Prazosin). As to conditions: α1, [3H] Prazosin; read-out: K0.5.
Assay [2] addresses type L calcium channels. Briefly: Binding: displacement of [3H] D888 at the Ca2+ channel. As to conditions: read-out: K0.5 (50% of specifically fixed radioactivity displaced). In general terms: In a radioligand displacement assay an active substance lowers the binding of a labelled ligand.
Assay [3] deals with 5HT2 (Homo sapiens, UniProt P28223). Briefly: Binding to neurotransmitter receptors: 5HT2 ([3H] Ketanserine).
The subject of assay [4] is neurotransmitter receptors (5HT, α,β). Briefly: Effect on neurotransmitter receptors (panel as a whole). The format is binding. As to conditions: exception of the dopaminergic receptors. As to the method:
The competition experiments between the different radioligands and the reference molecules are carried out under the standard binding conditions according to O'BRIEN R. A., Receptor binding in drug research. In: Clinical Pharmacology, vol. 5, DEKKER M. Inc., New York and Basle (1986). In all cases, after the required linkage time, the bound radioactivity is separated from the free component by in vacuo filtration on a GF/C filter.

Assay [5] has as its target T1, 5HT1A (Homo sapiens, UniProt P08908).
T1 sequence (P08908 1-422): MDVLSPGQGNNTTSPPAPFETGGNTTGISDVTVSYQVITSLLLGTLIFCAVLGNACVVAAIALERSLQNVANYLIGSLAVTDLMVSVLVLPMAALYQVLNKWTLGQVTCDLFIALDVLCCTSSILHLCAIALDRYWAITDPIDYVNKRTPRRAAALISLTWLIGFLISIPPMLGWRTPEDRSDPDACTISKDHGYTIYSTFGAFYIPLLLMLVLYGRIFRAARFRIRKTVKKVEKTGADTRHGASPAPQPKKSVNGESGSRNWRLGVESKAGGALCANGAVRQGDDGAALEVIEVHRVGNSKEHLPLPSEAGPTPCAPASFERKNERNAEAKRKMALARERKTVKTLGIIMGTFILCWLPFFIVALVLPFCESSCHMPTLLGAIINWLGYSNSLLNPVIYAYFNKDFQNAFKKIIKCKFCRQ
Kind of assay: Binding to neurotransmitter receptors: 5HT1A ([3H] 8 OH DPAT). As to conditions: read-out: K0.5.

The target in assay [6] is T2, type L Ca^2+ channel (Rattus norvegicus, UniProt P22002).
T2 construct: cell lines from the aorta of newly born rats; host or cells: A7 r5
Briefly: Inhibition of 45Ca2+ influx through the Ca2+ channel in A7 r5 cells. The format is cell-based.

Assay [7] relates to beagle dogs. Kind of assay: Anti-ischaemic activity, Protocol 1: tight coronary stenosis in anaesthetised beagle dogs. The class given is in vivo, dog. As to the method: The studies are carried out on beagle dogs weighing from 9 to 12 kg which have been anaesthetised with pentobarbital sodium 30 mg/kg i.v., intubated and ventilated, and subjected to a thoracotomy at the 5th left intercostal space.
An electromagnetic ring connected to a Gould SP 2202 electromagnetic flow meter is placed around the circumflex branch of the left coronary artery, and an inflatable balloon is placed just downstream of that ring for the production of coronary stenoses under the control of the coronary output.
Piezoelectric crystals (5 MHz) connected to a Triton sonomicrometer are implanted in the subendocardium of the left ventricular wall, in an area that is to become ischaemic, for measuring local myocardial contractility; epicardial electrodes are placed in the same area for recording the epicardial electrocardiogram.
Myocardial ischaemia is induced by tight coronary stenosis that reduces coronary output by about 70%.
The same coronary stenosis, the effects of which are reversible and reproducible, is produced in the same animal for two periods of 10 minutes, separated by a recovery period of 45 minutes.
Treatments are administered intravenously 2 minutes after coronary stenosis:
injection of solvent after the first coronary stenosis, which serves as control,
injection of the test product after the second coronary stenosis.
Myocardial contractility is evaluated by the proportion of systolic shortening of the lengths of the segments between the piezoelectric crystals.
Hypokinesia in the ischaemic area is expressed as percentage variation relative to the contractility measured in the control period.
Modification of the epicardial ECG in the ischaemic area consists in raising the epicardial ST segment measured in millivolts (mV).

The test system of assay [8] is cardiac cells. Briefly: Protection of cardiac cells from necrosis induced by intracellular acidosis (αHBDH release). The format is cell-based, rat. As to the method:
a) Cardiac cells: the cardiac cells are prepared from the hearts of newly born (3 days) Wistar rats in accordance with the technique of RENAUD JF., MEAUX JP., ROMEY G., SCHMID A., LAZDUNSKI M., Activation of the voltage-dependent Ca^2+ channels in rat heart cells by dihydropyridine derivative--Biochem. Biophys. Res. Commun., 125, 405-412 (1984).
The cardiomyocytes are isolated from the ventricles by enzymatic dissociation and cultured at 185,000 cells/cm^2. The cells are kept at 37° C. under an air/CO2 atmosphere (95 V/5 V) saturated with water. The cardiomyocytes are used between the 3rd and 8th day following culturing.
Intracellular acidosis is induced in accordance with the conditions published by RENAUD JF., Internal pH Na^+ and Ca^2+ regulation by trimetazidine during cardiac cell acidosis. Cardiovasc. Drugs and Ther., 1, 667-686 (1988) in the presence or absence of the products to be tested. Cellular necrosis is evaluated by measuring by spectrophotometry using the Boerhinger 124800 kit the kinetics of the release of a cytosolic enzyme α-hydroxybutyrate dehydrogenase (αHBDH) into the extracellular medium.
The signal measured corresponds to the amplitude of the necrosis induced by the acidosis. The values are the means ±SD. The number of experiments is indicated in parentheses.

Assay [9] has as its target Dopamine D1 (Homo sapiens, UniProt P21728). Kind of assay: Binding to neurotransmitter receptors: D1 ([3H] SCH 23390). As to conditions: read-out: K0.5.
Assay [10] deals with T3, type L calcium channels (Oryctolagus cuniculus, UniProt P07293).
T3 construct: microsomal fractions enriched with type L calcium channels; from tissue; host or cells: microsomal fractions
Kind of assay: Binding: displacement of [3H] PN 200-110 at the Ca2+ channel.

Assay [11] concerns the target T4, slow calcium channels (Rattus norvegicus, UniProt P22002).
T4 construct: cell lines from the aorta of newly born rats; host or cells: A7 r5
Briefly: Electrophysiology, whole cell patch clamp on A7 r5, slow calcium entry flow. The format is cell-based. As to the method:
b) A7 r5 : cell lines from the aorta of newly born rats (ATCC No. CRL 1444), cultivated under the conditions indicated by the American Type Culture Collection (ATCC).
The studies were carried out on the A7 r5 cell line using the whole cell patch-clamp technique described by HAMILL O., MARTY A., WEHER E., SAKMANN B., SIGWORTH F. F., Improved patch clamp techniques for high resolution current recording from cells and cell from membrane patches. Pflugers Arch., 391, 85-100 (1981).
(In general: The patch-clamp technique gives a direct electrical read-out from membranes.)

A value given as a limit tells only on which side of the number the result lay.

T3 sequence (P07293 whole entry): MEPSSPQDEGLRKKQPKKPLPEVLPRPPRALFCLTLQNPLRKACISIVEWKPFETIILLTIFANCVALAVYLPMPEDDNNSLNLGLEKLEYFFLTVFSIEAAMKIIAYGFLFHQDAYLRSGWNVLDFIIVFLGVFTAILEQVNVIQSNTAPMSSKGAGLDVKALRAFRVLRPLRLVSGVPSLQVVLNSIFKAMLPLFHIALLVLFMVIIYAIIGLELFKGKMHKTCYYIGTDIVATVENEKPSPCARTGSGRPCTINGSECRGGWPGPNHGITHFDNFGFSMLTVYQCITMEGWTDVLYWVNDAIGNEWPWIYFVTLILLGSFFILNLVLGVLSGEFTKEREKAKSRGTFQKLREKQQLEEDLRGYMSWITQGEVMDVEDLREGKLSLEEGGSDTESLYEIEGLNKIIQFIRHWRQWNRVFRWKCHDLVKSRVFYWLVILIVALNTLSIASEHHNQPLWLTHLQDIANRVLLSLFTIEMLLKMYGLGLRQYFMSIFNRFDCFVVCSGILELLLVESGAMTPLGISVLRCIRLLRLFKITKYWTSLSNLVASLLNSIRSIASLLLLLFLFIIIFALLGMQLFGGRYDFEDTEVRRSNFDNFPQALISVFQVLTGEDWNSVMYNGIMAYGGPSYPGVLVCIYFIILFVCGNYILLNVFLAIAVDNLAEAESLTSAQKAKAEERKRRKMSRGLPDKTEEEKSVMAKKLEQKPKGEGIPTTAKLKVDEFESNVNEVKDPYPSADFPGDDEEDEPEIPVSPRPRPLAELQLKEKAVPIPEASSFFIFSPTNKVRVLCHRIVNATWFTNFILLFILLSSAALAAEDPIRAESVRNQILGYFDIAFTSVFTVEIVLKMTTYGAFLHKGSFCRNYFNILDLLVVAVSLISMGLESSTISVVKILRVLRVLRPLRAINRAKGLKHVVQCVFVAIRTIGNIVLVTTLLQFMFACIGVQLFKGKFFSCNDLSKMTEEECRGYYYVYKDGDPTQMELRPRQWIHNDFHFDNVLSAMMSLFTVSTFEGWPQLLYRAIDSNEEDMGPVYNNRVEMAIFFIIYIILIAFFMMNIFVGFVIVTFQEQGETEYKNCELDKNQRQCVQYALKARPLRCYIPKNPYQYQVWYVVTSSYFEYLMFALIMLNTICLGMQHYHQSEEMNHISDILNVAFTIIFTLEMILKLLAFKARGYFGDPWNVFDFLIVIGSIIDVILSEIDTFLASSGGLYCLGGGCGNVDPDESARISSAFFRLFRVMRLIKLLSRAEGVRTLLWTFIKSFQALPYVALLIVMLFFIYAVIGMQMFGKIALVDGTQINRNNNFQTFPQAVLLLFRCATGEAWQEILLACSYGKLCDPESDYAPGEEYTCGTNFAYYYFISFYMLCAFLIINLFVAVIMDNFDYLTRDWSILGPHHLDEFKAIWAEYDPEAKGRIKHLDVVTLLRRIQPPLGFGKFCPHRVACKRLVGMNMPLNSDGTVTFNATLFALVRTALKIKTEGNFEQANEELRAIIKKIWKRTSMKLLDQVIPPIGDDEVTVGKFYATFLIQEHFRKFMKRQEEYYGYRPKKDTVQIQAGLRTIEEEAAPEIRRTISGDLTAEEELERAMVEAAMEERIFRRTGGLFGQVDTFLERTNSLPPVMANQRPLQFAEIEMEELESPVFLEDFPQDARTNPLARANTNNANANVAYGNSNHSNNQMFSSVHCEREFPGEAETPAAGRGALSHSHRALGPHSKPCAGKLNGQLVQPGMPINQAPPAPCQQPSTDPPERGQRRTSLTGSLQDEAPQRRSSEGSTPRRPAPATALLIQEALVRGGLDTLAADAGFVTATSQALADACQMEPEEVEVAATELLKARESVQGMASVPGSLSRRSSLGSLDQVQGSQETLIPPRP
T3 sequence (P13806 27-960 partner limits assumed): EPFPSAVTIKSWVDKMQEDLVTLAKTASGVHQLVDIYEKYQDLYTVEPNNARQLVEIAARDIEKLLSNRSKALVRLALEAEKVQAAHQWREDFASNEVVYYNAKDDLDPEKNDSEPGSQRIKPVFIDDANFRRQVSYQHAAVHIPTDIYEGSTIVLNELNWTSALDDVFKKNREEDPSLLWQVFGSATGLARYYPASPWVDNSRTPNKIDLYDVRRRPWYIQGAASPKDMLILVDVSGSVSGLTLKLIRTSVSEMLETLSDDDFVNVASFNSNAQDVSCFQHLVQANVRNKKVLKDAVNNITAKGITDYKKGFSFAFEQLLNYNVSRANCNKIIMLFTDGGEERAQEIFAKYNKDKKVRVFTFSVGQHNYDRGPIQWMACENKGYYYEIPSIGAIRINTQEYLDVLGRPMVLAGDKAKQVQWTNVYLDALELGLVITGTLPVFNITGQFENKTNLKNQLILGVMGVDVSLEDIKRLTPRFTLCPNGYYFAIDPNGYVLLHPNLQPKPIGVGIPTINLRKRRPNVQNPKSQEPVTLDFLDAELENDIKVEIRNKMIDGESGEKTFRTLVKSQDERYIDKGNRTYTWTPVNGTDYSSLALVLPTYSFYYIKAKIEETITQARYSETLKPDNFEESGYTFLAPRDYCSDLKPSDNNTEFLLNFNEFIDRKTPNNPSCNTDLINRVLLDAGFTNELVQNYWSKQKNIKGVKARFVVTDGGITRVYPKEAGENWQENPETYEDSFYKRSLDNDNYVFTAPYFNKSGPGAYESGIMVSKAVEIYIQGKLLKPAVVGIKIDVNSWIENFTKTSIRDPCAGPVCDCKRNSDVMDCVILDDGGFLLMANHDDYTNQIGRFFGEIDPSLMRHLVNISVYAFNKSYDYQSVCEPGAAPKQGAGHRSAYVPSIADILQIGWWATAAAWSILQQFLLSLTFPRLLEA
T3 sequence (P13806 961-1106 partner limits assumed): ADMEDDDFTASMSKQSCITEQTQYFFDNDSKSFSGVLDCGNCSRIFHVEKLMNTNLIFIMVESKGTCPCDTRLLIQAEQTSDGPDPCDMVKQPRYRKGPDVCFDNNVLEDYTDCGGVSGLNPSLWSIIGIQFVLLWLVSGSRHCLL
T3 sequence (P19517 whole entry partner): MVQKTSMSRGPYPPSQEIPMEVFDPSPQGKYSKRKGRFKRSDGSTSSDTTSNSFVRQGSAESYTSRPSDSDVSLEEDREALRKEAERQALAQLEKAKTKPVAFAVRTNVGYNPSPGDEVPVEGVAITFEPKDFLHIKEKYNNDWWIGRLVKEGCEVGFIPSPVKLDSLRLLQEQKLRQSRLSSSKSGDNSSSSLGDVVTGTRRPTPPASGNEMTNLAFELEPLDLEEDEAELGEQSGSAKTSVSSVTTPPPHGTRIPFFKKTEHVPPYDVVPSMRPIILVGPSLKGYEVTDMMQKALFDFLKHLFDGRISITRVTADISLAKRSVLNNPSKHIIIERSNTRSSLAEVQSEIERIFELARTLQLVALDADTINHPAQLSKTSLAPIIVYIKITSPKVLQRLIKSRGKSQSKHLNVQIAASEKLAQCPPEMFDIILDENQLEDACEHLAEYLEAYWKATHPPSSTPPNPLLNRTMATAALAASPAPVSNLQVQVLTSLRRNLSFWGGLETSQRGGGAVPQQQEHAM
T3 sequence (P19518 whole entry partner): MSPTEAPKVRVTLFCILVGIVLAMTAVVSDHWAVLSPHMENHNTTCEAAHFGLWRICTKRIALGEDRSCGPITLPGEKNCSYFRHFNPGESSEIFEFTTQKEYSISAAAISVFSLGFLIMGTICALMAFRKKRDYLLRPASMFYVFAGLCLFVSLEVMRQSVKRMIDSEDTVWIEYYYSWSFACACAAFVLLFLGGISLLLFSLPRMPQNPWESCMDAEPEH
Chain of 5HT2 (P28223 whole entry, species assumed): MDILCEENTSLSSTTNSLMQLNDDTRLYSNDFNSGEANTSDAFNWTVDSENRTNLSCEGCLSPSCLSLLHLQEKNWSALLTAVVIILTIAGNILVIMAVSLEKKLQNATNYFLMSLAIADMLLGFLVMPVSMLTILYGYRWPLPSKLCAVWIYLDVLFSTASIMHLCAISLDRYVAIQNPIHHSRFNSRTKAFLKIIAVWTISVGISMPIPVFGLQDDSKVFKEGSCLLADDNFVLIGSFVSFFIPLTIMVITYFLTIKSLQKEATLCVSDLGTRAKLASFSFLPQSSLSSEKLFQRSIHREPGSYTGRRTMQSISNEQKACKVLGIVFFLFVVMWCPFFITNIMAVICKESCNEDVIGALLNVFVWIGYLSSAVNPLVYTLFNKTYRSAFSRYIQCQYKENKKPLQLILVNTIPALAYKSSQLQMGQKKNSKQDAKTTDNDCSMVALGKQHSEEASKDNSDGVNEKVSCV
Chain of Dopamine D1 (P21728 whole entry): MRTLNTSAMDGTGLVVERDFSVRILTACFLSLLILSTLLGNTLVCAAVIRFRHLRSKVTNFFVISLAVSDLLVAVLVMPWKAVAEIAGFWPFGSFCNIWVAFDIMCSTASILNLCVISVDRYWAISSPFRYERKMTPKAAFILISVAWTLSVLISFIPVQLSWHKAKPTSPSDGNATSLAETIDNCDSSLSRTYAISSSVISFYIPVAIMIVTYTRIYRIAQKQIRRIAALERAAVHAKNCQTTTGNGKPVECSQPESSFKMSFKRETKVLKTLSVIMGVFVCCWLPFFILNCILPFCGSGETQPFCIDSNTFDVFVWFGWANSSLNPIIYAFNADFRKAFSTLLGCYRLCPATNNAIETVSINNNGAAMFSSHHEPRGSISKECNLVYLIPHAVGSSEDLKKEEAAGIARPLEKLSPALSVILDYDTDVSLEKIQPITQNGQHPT

Consider `COc1ccc(CSC2CCN(CC=Cc3ccccc3)CC2)c(OC)c1OC` [Example 1, 4-(2,3,4-trimethoxybenzylthio)-1-cinnamylpiperidine], for which the IC50 in [1] stood at 2000 nM; in assay [2], 1300 nM; in assay [3] it was 1000 nM; in assay [5], 3000 nM; in assay [6] (45Ca2+ influx, A7 r5 cells, read-out: K0.5 (50% of 45Ca2+ influx inhibited)), 3000 nM; in assay [9], 300 nM. Also, the IC50 in [10] ([3H] PN 200-110, read-out: K0.5 (50% of specifically fixed radioactivity displaced)) came to 1000 nM. Also, the “interaction with neurotransmitter receptors (in words)” value in [4] is “interacts in a relatively non-specific manner and with low affinity with neurotransmitter receptors (5HT, α,β) with the exception of the dopaminergic receptors”. Further, in [6], the “inhibition of Ca2+ influx (in words)” value is “inhibition of the influx of Ca^2+”. The Contractility delta % in assay [7] (10 minutes after treatment, 1 mg/kg i.v., solvent -44.5) is -24.3%; in [7] (Stenosis (before treatment), 1 mg/kg i.v. group, solvent -45.8) it was -45%. Further, the “Epicardial ST delta mV” value in assay [7] (10 minutes after treatment, 1 mg/kg, solvent +4) is on record as “+2 mV”; in assay [7] (Stenosis (before treatment), 1 mg/kg group, solvent +4.5) it was “+4.5 mV”. For the same molecule, in assay [7] (intravenous, Protocols 1 and 2), the “anti-ischaemic effect (in words)” value is “markedly reduces both preventively and curatively the electrocardiographic modifications and the modifications of myocardial contractility induced by ischaemia”. In addition, the activity at 0.3 µM in [8] (Rattus norvegicus, Cardiomyocyte, 0.3 μM, control after acidosis alone 100%, before acidosis 0%, mean ±SD, read-out: amplitude of the necrosis induced by the acidosis) turned out to be 144%. Also, the activity at 1 µM in [8] (Rattus norvegicus, Cardiomyocyte, 1 μM, control after acidosis alone 100%, mean ±SD, read-out: amplitude of the necrosis induced by the acidosis) turned out to be 21.9%. The activity at 3 µM in assay [8] (Rattus norvegicus, Cardiomyocyte, 3 μM, control after acidosis alone 100%, mean ±SD, read-out: amplitude of the necrosis induced by the acidosis) came out at 1.42%. In addition, in [8] (Rattus norvegicus, Cardiomyocyte, 10 μM, control after acidosis alone 100%, mean ±SD, read-out: amplitude of the necrosis induced by the acidosis), the activity at 10 µM worked out at 2.14%. For the same molecule, the activity at 30 µM in assay [8] (Rattus norvegicus, Cardiomyocyte, 30 μM, control after acidosis alone 100%, mean ±SD, read-out: amplitude of the necrosis induced by the acidosis) was 9.68%. Besides, the minimal effective concentration in assay [8] (Rattus norvegicus, 1 μM and above, read-out: concentration at which protection occurs) is not below 1 µM. The “protection of cells with respect to intracellular acidosis (in words)” value in [8] (in vitro) is recorded as “protects the cardiac cell from necrosis induced by intracellular acidosis”. Moreover, the “binding to the slow Ca2+ channel (in words)” value in assay [10] is reported as “binds to the receptors of the slow Ca^2+ channel”. In addition, in assay [11], the “inhibition of slow calcium channels / Ca2+ entry flow (in words)” value was “inhibition of the Ca^2+ entry flow in a dose-dependent manner”. Further, the concentration for a half-maximal effect (EC50) (as a rule, the concentration that produces a half-maximal response) in assay [11] (whole cell patch clamp, A7 r5, read-out: semi-effect (EC50), inhibition of the slow calcium entry flow) was 10000 nM.
